Measurements as given in paper PMC3433420 (PLoS ONE, 2012).
Residues, ends and D or L forms follow the SMILES beside them.

How the values were obtained:
SH2 and PTB domains [1] = molecular target: T1, SH2 and PTB domains (Homo sapiens, UniProt P27986); assay: In-house protein microarrays (with or without 5 mM DTT), protein named per line; format: binding
T1 construct: thioredoxin; made in house; host or cells: BL21(DE3)pLysS E. coli
Summary of the method: (§1)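 KD values come from rhodamine fluorescence of duplicate spots after subtraction of a thioredoxin control. Domains were printed at ~40 µM on aldehyde slides, blocked 1 h at room temperature in pH 7.8 HEPES/KCl buffer with 5 mM DTT and 1% BSA, then peptide-probed.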

VAV1 SH2 domain = VAV1 SH2 domain (Homo sapiens, UniProt P15498); assay: FP saturation binding assay
PLCG1-N SH2 domain = PLCG1-N SH2 domain (Homo sapiens, UniProt P19174); assay: FP saturation binding assay
SH2D2A SH2 domain = SH2D2A SH2 domain (Homo sapiens, UniProt Q9NP31); assay: FP saturation binding assay
GRB7 SH2 domain = GRB7 SH2 domain (Homo sapiens, UniProt Q14451); assay: FP saturation binding assay
NCK2 SH2 domain = NCK2 SH2 domain (Homo sapiens, UniProt O43639); assay: FP saturation binding assay
SH2D1B SH2 domain = molecular target: T2, SH2D1B SH2 domain (Homo sapiens, UniProt O14796); assay: FP saturation binding assay
T2 sequence (O14796 5-101 limits assumed): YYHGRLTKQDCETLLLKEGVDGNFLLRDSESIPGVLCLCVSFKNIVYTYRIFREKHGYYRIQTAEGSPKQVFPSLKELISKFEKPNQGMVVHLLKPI

GRB2 SH2 domain = GRB2 SH2 domain (Homo sapiens, UniProt P62993); assay: FP saturation binding assay
HSH2D SH2 domain = molecular target: T3, HSH2D SH2 domain (Homo sapiens, UniProt Q96JZ2); assay: FP saturation binding assay
T3 sequence (Q96JZ2 34-125 limits assumed): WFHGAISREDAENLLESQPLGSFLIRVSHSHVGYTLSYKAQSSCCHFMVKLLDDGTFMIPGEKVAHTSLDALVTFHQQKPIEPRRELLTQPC

SHC1 SH2 domain = SHC1 SH2 domain (Homo sapiens, UniProt P29353); assay: FP saturation binding assay
STAP1 SH2 domain = STAP1 SH2 domain (Homo sapiens, UniProt Q9ULZ2); assay: FP saturation binding assay
SH2 and PTB domains [2] = molecular target: T4, SH2 and PTB domains (Homo sapiens, UniProt P46109); assay: In-house protein microarrays (with or without 5 mM DTT), protein named per line; format: binding; conditions: protein CRKL
T4 construct: thioredoxin; made in house; host or cells: BL21(DE3)pLysS E. coli
Summary of the method: as §1

VAV2 SH2 domain = VAV2 SH2 domain (Homo sapiens, UniProt P52735); assay: FP saturation binding assay
[3] = molecular target: PLCG2-NC tandem SH2 domains (Homo sapiens, UniProt P16885); assay: FP saturation binding assay
PLCG2-NC tandem SH2 domains, sequence (P16885 532-735 limits assumed): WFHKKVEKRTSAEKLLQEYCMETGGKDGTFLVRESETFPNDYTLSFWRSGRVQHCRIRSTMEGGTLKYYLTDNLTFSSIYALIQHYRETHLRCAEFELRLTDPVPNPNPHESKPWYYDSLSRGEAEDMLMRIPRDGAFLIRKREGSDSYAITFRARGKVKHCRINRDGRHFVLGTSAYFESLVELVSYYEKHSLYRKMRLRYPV

T4 sequence (P46109 whole entry, the tested form may be a part): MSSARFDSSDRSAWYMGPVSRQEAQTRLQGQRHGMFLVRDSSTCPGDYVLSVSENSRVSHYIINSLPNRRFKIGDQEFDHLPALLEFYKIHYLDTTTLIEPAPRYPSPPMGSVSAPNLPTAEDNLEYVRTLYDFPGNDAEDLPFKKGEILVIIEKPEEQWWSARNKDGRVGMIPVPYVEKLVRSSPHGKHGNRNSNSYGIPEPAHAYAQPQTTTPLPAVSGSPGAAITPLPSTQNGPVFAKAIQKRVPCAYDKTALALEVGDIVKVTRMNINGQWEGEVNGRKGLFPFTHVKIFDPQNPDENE
T1 sequence (P27986 whole entry, the tested form may be a part): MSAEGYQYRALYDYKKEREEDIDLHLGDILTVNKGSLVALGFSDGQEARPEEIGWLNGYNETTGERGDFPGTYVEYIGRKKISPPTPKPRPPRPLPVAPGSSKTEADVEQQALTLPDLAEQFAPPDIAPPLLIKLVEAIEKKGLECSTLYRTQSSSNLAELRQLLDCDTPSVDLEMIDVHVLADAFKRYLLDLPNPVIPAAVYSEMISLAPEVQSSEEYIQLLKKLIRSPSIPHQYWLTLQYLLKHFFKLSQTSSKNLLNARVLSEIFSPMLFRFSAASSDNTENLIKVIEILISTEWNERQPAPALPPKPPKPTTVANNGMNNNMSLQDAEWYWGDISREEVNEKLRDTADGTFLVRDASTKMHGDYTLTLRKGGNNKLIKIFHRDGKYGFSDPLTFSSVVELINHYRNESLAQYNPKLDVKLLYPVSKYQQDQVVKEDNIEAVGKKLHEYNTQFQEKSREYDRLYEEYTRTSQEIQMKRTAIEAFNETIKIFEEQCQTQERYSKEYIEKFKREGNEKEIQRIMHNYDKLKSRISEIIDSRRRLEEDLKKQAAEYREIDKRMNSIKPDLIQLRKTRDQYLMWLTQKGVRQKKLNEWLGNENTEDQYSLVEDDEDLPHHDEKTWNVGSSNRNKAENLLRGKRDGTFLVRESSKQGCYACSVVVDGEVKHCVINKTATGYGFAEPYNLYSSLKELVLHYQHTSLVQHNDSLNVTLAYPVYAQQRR
GRB7 SH2 domain, sequence (Q14451 431-527 limits assumed): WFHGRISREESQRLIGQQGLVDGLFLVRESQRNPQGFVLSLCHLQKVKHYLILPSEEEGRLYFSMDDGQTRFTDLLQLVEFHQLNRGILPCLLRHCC
VAV1 SH2 domain, sequence (P15498 671-765 limits assumed): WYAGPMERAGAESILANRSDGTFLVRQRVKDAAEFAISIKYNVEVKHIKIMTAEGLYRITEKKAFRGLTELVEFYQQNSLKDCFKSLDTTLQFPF
VAV2 SH2 domain, sequence (P52735 673-767 limits assumed): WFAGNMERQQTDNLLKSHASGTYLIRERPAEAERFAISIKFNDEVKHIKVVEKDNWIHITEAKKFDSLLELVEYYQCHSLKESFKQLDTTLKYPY
GRB2 SH2 domain, sequence (P62993 60-152 limits assumed): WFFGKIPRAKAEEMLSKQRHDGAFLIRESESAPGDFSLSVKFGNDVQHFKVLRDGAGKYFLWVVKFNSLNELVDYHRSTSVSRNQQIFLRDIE
SHC1 SH2 domain, sequence (P29353 488-579 limits assumed): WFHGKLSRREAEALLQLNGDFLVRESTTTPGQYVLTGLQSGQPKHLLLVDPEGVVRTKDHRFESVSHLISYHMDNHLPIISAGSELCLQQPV
PLCG1-N SH2 domain, sequence (P19174 550-657 limits assumed): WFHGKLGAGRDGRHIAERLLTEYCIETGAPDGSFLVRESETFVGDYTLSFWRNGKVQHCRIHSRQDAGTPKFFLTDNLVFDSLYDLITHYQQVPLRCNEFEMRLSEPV
STAP1 SH2 domain, sequence (Q9ULZ2 177-280 limits assumed): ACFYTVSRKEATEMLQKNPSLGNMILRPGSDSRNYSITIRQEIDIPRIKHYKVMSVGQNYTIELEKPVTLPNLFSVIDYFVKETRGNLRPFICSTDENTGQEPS
SH2D2A SH2 domain, sequence (Q9NP31 95-186 limits assumed): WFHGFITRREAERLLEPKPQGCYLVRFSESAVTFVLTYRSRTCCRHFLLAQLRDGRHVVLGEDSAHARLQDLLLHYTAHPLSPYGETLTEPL
NCK2 SH2 domain, sequence (O43639 285-380 limits assumed): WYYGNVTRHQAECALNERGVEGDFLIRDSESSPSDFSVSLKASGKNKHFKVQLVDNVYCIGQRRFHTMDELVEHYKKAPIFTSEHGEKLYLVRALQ

In the case of `CCN(CC)c1ccc2c(-c3ccc(C(=O)N[C@@H](CC(N)=O)C(=O)NCC(=O)N4CCC[C@H]4C(=O)N4CCC[C@H]4C(=O)N[C@@H](CCCCN)C(=O)N[C@@H](C)C(=O)N[C@@H](CCC(=O)O)C(=O)N[C@@H](CC(=O)O)C(=O)N[C@@H](CCC(=O)O)C(=O)N[C@@H](Cc4ccc(OP(=O)(O)O)cc4)C(=O)N[C@H](C(=O)N[C@@H](CC(N)=O)C(=O)N[C@@H](CCC(=O)O)C(=O)N4CCC[C@H]4C(=O)N[C@@H](CC(C)C)C(=O)N[C@@H](Cc4ccc(O)cc4)C(=O)N[C@@H](CC(C)C)C(=O)N[C@@H](CC(=O)O)C(=O)O)C(C)C)cc3C(=O)[O-])c3ccc(=[N+](CC)CC)cc-3oc2c1` [ErbB4 1202 (18-mer)] (HELM PEPTIDE1{[CCN(CC)c1ccc2c(-c3ccc(C(=O)[*:2])cc3C(=O)[O-])c3ccc(=[N+](CC)CC)cc-3oc2c1].N.G.P.P.K.A.E.D.E.[O=C([C@H](Cc1ccc(OP(=O)(O)O)cc1)N[*:1])[*:2]].V.N.E.P.L.Y.L.D}$$$$V2.0), the “Kd” value (SH2 and PTB domains [1]; protein PIK3R1-NC, PM assay replicate # 39307, array fabrication # 39286) is reported as 0.17 µM and the “Kd” value (SH2 and PTB domains [1]; protein PIK3R1-NC, PM assay replicate # 39337, array fabrication # 39329) is reported as 0.54 µM.

`CSCC[C@H](NC(=O)[C@H](Cc1ccc(OP(=O)(O)O)cc1)NC(=O)CNC(=O)[C@H](CCC(=O)O)NC(=O)[C@H](CCC(=O)O)NC(=O)[C@H](CC(=O)O)NC(=O)[C@H](CC(C)C)NC(=O)[C@H](CCC(=O)O)NC(=O)CNC(=O)[C@H](CCCNC(=N)N)NC(=O)[C@@H]1CCCN1)C(=O)N[C@H](C(=O)N1CCC[C@H]1C(=O)N[C@@H](CCSC)C(=O)N[C@@H](CCCNC(=N)N)C(=O)N[C@@H](CC(=O)O)C(=O)N[C@@H](CCCCN)C(=O)N[C@@H](CC(=O)O)C(=O)O)[C@@H](C)O` [ErbB4 1150 18-mer] (HELM PEPTIDE1{P.R.G.E.L.D.E.E.G.[O=C([C@H](Cc1ccc(OP(=O)(O)O)cc1)N[*:1])[*:2]].M.T.P.M.R.D.K.D}$$$$V2.0) showed a Kd (VAV1 SH2 domain) of 0.86 µM.

`CC(C)[C@H](NC(=O)[C@H](CC(=O)O)NC(=O)[C@@H]1CCCN1C(=O)[C@H](CCC(N)=O)NC(=O)[C@H](CC(N)=O)NC(=O)[C@@H](NC(=O)[C@H](Cc1ccc(OP(=O)(O)O)cc1)NC(=O)[C@H](CCC(=O)O)NC(=O)[C@@H]1CCCN1C(=O)[C@H](CCC(N)=O)NC(=O)[C@@H]1CCCN1)C(C)C)C(=O)N[C@@H](CCCNC(=N)N)C(=O)N[C@@H](CC(=O)O)C(=O)O` [ErbB2 1139 13-mer] (HELM PEPTIDE1{P.Q.P.E.[O=C([C@H](Cc1ccc(OP(=O)(O)O)cc1)N[*:1])[*:2]].V.N.Q.P.D.V.R.D}$$$$V2.0) gave a Kd (PLCG1-N SH2 domain) of 11.8 µM and a Kd (SH2D2A SH2 domain) of 4.8 µM.

For DNLYpYWDQDPPEd [ErbB2 pY1222], the “interaction with GRB7 on the FP platform” value (GRB7 SH2 domain; peptides queried on both FP and PM platforms) was “only displayed interactions with GRB7 from the PM platform”.

With `CSCC[C@H](NC(=O)[C@H](Cc1ccc(OP(=O)(O)O)cc1)NC(=O)[C@H](CCC(=O)O)NC(=O)[C@H](Cc1ccc(O)cc1)NC(=O)CNC(=O)[C@@H](N)CC(C)C)C(=O)N[C@@H](CC(=O)O)C(=O)N[C@H](C(=O)NCC(=O)N[C@@H](CO)C(=O)N[C@@H](CC(=O)O)C(=O)N[C@@H](CC(C)C)C(=O)N[C@@H](CC(=O)O)C(=O)O)C(C)C` [ErbB3 1224 13-mer] (HELM PEPTIDE1{L.G.Y.E.[O=C([C@H](Cc1ccc(OP(=O)(O)O)cc1)N[*:1])[*:2]].M.D.V.G.S.D.L.D}$$$$V2.0) the Kd (NCK2 SH2 domain) was 4.6 µM and the Kd (SH2D1B SH2 domain) was 1.47 µM.

In the case of `CC(C)C[C@H](NC(=O)[C@H](Cc1ccc(OP(=O)(O)O)cc1)NC(=O)[C@H](CC(C)C)NC(=O)[C@@H]1CCCN1C(=O)[C@H](CCC(=O)O)NC(=O)[C@H](CC(N)=O)NC(=O)[C@@H](NC(=O)[C@H](Cc1ccc(O)cc1)NC(=O)[C@H](CCC(=O)O)NC(=O)[C@H](CC(=O)O)NC(=O)[C@@H](N)CCC(=O)O)C(C)C)C(=O)N[C@@H](CC(N)=O)C(=O)N[C@H](C(=O)N[C@@H](Cc1ccccc1)C(=O)N[C@@H](C)C(=O)N[C@@H](CC(N)=O)C(=O)N[C@H](C(=O)N[C@@H](CC(=O)O)C(=O)O)[C@@H](C)O)[C@@H](C)O` [ErbB4 1208 18-mer] (HELM PEPTIDE1{E.D.E.Y.V.N.E.P.L.[O=C([C@H](Cc1ccc(OP(=O)(O)O)cc1)N[*:1])[*:2]].L.N.T.F.A.N.T.D}$$$$V2.0), the Kd (GRB2 SH2 domain) is reported as 2.46 µM, the Kd (GRB7 SH2 domain; Mean KD, protein GRB7, high-confidence ErbB interactions, mean of replicate hits) is reported as 9.99 µM and the Kd (HSH2D SH2 domain) is reported as 1.14 µM. The Kd (SHC1 SH2 domain) was 11 µM and the Kd (STAP1 SH2 domain) was 10.1 µM.

With `CC[C@H](C)[C@H](NC(=O)[C@H](CC(N)=O)NC(=O)[C@H](CC(N)=O)NC(=O)[C@H](CCCCN)NC(=O)[C@H](CC(C)C)NC(=O)[C@H](Cc1ccc(OP(=O)(O)O)cc1)NC(=O)[C@H](CCC(=O)O)NC(=O)[C@H](C)NC(=O)[C@H](CCCCN)NC(=O)CNC(=O)[C@H](CC(C)C)NC(=O)[C@@H](NC(=O)[C@H](CC(N)=O)NC(=O)[C@H](C)NC(=O)[C@@H](N)Cc1ccccc1)[C@@H](C)O)C(=O)N[C@@H](CC(C)C)C(=O)N[C@@H](CO)C(=O)N[C@@H](CC(=O)O)C(=O)O` [ErbB4 pY1221 (18-mer)] (HELM PEPTIDE1{F.A.N.T.L.G.K.A.E.[O=C([C@H](Cc1ccc(OP(=O)(O)O)cc1)N[*:1])[*:2]].L.K.N.N.I.L.S.D}$$$$V2.0) the “Kd” value (SH2 and PTB domains [2]; PM assay replicate # 39307, array fabrication # 39286) was 0.11 µM.

In the case of `CC(C)C[C@H](NC(=O)[C@H](Cc1ccc(OP(=O)(O)O)cc1)NC(=O)[C@H](CCC(=O)O)NC(=O)[C@H](CCC(=O)O)NC(=O)[C@H](C)NC(=O)[C@@H](N)CC(=O)O)C(=O)N[C@H](C(=O)N1CCC[C@H]1C(=O)N[C@@H](CCC(N)=O)C(=O)N[C@@H](CCC(N)=O)C(=O)NCC(=O)N[C@@H](Cc1ccccc1)C(=O)N[C@@H](CC(=O)O)C(=O)O)C(C)C` [ErbB2 1023 13-mer] (HELM PEPTIDE1{D.A.E.E.[O=C([C@H](Cc1ccc(OP(=O)(O)O)cc1)N[*:1])[*:2]].L.V.P.Q.Q.G.F.D}$$$$V2.0), the Kd (VAV2 SH2 domain) is reported as 9.9 µM.

`CC(C)C[C@H](NC(=O)[C@@H]1CCCN1C(=O)[C@H](C)NC(=O)[C@@H](NC(=O)[C@H](Cc1ccc(OP(=O)(O)O)cc1)NC(=O)CNC(=O)[C@H](CC(=O)O)NC(=O)[C@@H](NC(=O)[C@@H](N)CCC(=O)O)[C@@H](C)O)C(C)C)C(=O)N[C@H](C(=O)N[C@@H](CS)C(=O)N[C@@H](CO)C(=O)N[C@@H](CC(=O)O)C(=O)O)[C@@H](C)O` [ErbB2 pY1127] was tested, and the “Kd” value (SH2 and PTB domains [1]; protein PIK3R1-N, PM assay replicate # 39336, array fabrication # 39329) was 0.019 µM, the “Kd” value (SH2 and PTB domains [1]; protein PIK3R1-N, PM assay replicate # 39337, array fabrication # 39329) was 0.22 µM and the “Kd” value (SH2 and PTB domains [2]; PM assay replicate # 39336, array fabrication # 39329) was 4.80 µM. The “Kd” value (SH2 and PTB domains [2]; PM assay replicate # 39337, array fabrication # 39329) was 0.64 µM.

With `CC(C)C[C@H](NC(=O)[C@H](CC(N)=O)NC(=O)[C@@H](N)CC(=O)O)C(=O)N[C@@H](Cc1ccc(O)cc1)C(=O)N[C@@H](Cc1ccc(OP(=O)(O)O)cc1)C(=O)N[C@@H](Cc1c[nH]c2ccccc12)C(=O)N[C@@H](CC(=O)O)C(=O)N[C@@H](CCC(N)=O)C(=O)N[C@@H](CC(=O)O)C(=O)N1CCC[C@H]1C(=O)N1CCC[C@H]1C(=O)N[C@@H](CCC(=O)O)C(=O)N[C@@H](CC(=O)O)C(=O)O` [ErbB2 1222 13-mer] (HELM PEPTIDE1{D.N.L.Y.[O=C([C@H](Cc1ccc(OP(=O)(O)O)cc1)N[*:1])[*:2]].W.D.Q.D.P.P.E.D}$$$$V2.0) the Kd [3] was 6.4 µM.
